Results on 51 compounds are retold here after BindingDB's records for doi:10.7270/Q2G73C2Z (University of Pittsburgh, 2007).

The target in this assay is T1, Dual specificity protein phosphatase 6 (Rattus norvegicus, UniProt Q64346).
T1 sequence (Q64346 whole entry): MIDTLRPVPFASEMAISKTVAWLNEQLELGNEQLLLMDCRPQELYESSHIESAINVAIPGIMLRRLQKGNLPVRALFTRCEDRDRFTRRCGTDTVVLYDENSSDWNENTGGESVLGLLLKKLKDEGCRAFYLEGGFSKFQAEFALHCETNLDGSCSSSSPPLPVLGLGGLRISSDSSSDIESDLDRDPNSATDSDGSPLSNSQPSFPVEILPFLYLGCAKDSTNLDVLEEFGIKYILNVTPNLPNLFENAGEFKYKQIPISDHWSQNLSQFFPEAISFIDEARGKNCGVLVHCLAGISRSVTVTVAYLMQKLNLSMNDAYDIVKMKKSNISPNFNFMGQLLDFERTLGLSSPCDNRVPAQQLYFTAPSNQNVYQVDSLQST
The assay is described as follows: reproducibility of MKP-3 inhibition curves – biochemical, rat DUSP6, reproducibility testing, probe assessment, dose response (AID 566).
In the case of `O=C(c1cccs1)c1no[n+]([O-])c1C(=O)c1cccs1` [(5-oxidanidyl-4-thiophen-2-ylcarbonyl-1,2,5-oxadiazol-5-ium-3-yl)-thiophen-2-yl-methanone], the IC50 (commonly the midpoint of a concentration-inhibition curve) was more than 50 µM.

`CCOc1ccc2noc3c2c1C(=O)c1ccccc1-3` [MLS000106837] returned a concentration for half-maximal inhibition (IC50) of more than 50 µM.

In turn, `N#Cc1c(NC(=O)c2ccc(Br)o2)n(-c2ccccc2)c2nc3ccccc3nc12` [5-bromanyl-N-(3-cyano-1-phenyl-pyrrolo[3,2-b]quinoxalin-2-yl)furan-2-carboxamide] showed a 50% inhibitory concentration (IC50) of 15.5 µM.

Turning to `Cc1nc2cc(-c3cccc(F)c3)nn2c(C)c1CCC(=O)N1CCC2(CC1)OCCO2` [1-(1,4-dioxa-8-azaspiro[4.5]decan-8-yl)-3-[2-(3-fluorophenyl)-5,7-dimethyl-6-pyrazolo[1,5-a]pyrimidinyl]-1-propanone], the IC50 is more than 50 µM.

In turn, `[O-]/[N+](=C\c1ccc(OC(F)F)cc1)c1ccccc1` [1-[4-(difluoromethoxy)phenyl]-N-phenylmethanimine oxide] displayed an IC50 of more than 50 µM.

`CCCSc1nnc(NC(=O)c2sc3nc(-c4cccs4)ccc3c2N)s1` [3-amino-N-(5-propylsulfanyl-1,3,4-thiadiazol-2-yl)-6-thiophen-2-ylthieno[2,3-b]pyridine-2-carboxamide] came in with a concentration for half-maximal inhibition (IC50) of more than 50 µM.

In the case of `O=C1C=Cc2ccccc2C1=O` [1,2-dihydronaphthalene-1,2-dione], the IC50 is more than 50 µM.

For `COc1ccc(-n2c(NC(=O)c3ccco3)c(C#N)c3nc4ccccc4nc32)cc1` [MLS000079925], the IC50 is 14.2 µM.

As to `CCCCn1c(NC(=O)c2ccccc2)c(C#N)c2nc3ccccc3nc21` [SMR000060333], 18.4 µM corresponded to half-maximal inhibition (IC50).

Compound `CC1=C(/C=C/C(C)=C/C=C/C(C)=C/C(=O)O)C(C)(C)CCC1` [ALL-TRANS-RETINOIC ACID] displayed a half-maximal inhibitory concentration (IC50) of more than 50 µM.

`Cc1ccc(C)n1-c1cccc(C(=O)O)c1` displayed a 50% inhibitory concentration (IC50) of more than 50 µM.

`CCCCNC(=O)c1c(N)n(CCCOC)c2nc3ccccc3nc12` [2-amino-N-butyl-1-(3-methoxypropyl)-3-pyrrolo[3,2-b]quinoxalinecarboxamide] registered a 50% inhibitory concentration (IC50) of more than 50 µM.

Turning to `Cc1cc(NC(=O)c2ccc(S(=O)(=O)N3CCCC3)cc2)nc2c1c(=O)oc1ccccc12` [MLS000091355], the IC50 is more than 50 µM.

With `CCOc1ccc(-c2cc3nc(C4CCN(C(=O)OC(C)(C)C)CC4)c(C(=O)O)cn3n2)cc1` [2-(4-ethoxyphenyl)-5-[1-[(2-methylpropan-2-yl)oxy-oxomethyl]-4-piperidinyl]-6-pyrazolo[1,5-a]pyrimidinecarboxylic acid], the IC50 is more than 50 µM.

Compound `Cc1cc(C)n2c(SCC(=O)N3CCN(S(=O)(=O)c4ccc(Cl)cc4)CC3)nnc2n1` [1-[4-(4-chlorophenyl)sulfonyl-1-piperazinyl]-2-[(5,7-dimethyl-[1,2,4]triazolo[4,3-a]pyrimidin-3-yl)thio]ethanone] gave an IC50 of more than 50 µM.

`CCCCn1c(SCC(=O)c2ccc(OC)cc2OC)nc2cc(S(N)(=O)=O)ccc21` [1-butyl-2-[2-(2,4-dimethoxyphenyl)-2-oxidanylidene-ethyl]sulfanyl-benzimidazole-5-sulfonamide] showed an IC50 of more than 50 µM.

`O=C1Nc2ccccc2SC(c2ccccc2)C1O` (stereo unspecified) [3-hydroxy-2-phenyl-2,3-dihydro-1,5-benzothiazepin-4(5H)-one] gave a half-maximal inhibitory concentration (IC50) of more than 50 µM.

As for `CC(C)(C)N1C(=O)Cc2c1nc(N)c1c(N)nc(N3CCCCC3CO)c(C#N)c21` (stereo unspecified) [5,6-bis(azanyl)-3-tert-butyl-8-[2-(hydroxymethyl)piperidin-1-yl]-2-oxidanylidene-1H-pyrrolo[2,3-c][2,7]naphthyridine-9-carbonitrile], the half-inhibitory concentration (IC50) was more than 50 µM.

With `N#Cc1c(N)sc(=S)c2c1CCN(Cc1ccccc1)C2` [3-Amino-7-benzyl-1-thioxo-5,6,7,8-tetrahydro-1H-thiopyrano[3,4-c]pyridine-4-carbonitrile], the IC50 came to 2.08 µM.

Compound `COC(=O)c1ccccc1NC(=O)CN1C(=O)C2CCCN2c2ncc(Cl)cc21` (stereo unspecified) [MLS000094302] came in with an IC50 of more than 50 µM.

`CCCCCC#CCC#CCC#CCC#CCCCC(=O)O` displayed an IC50 of more than 50 µM.

`Cc1cccc(NC(=O)c2cc(NC(=O)C3CCCCC3C(=O)O)ccc2N2CCCCC2)c1` (stereo unspecified) [2-({[3-{[(3-methylphenyl)amino]carbonyl}-4-(1-piperidinyl)phenyl]amino}carbonyl)cyclohexanecarboxylic acid]: the IC50 was more than 50 µM.

As to `CCCCCNC(=O)c1ccc2c(=O)[nH]c3c(C(=O)NCC4CCCO4)sc(=S)n3c2c1` (stereo unspecified) [5-oxo-N3-(2-oxolanylmethyl)-N8-pentyl-1-sulfanylidene-4H-thiazolo[3,4-a]quinazoline-3,8-dicarboxamide], the half-inhibitory concentration (IC50) was more than 50 µM.

As to `COc1ccc2noc3c2c1C(=O)c1ccccc1-3` [MLS000106874], half-maximal inhibition (IC50) was put at 22.6 µM.

As for `Cc1c(N=c2c(=O)c3ccccc3c2=O)c(=O)n(-c2ccccc2)n1C` [MLS000105950], half-maximal inhibition (IC50) was put at 8.19 µM.

`CCOc1cc(/C=C(/C#N)c2ccc(F)cc2)ccc1OCc1ccc(C(=O)O)o1` [5-[[4-[(E)-2-cyano-2-(4-fluorophenyl)ethenyl]-2-ethoxyphenoxy]methyl]furan-2-carboxylic acid] registered an IC50 of more than 50 µM.

`Cc1nc2c(C(=O)NCCC3=CCCCC3)c[nH]n2c(=O)c1Cl` [6-chloro-N-(2-cyclohex-1-en-1-ylethyl)-7-hydroxy-5-methylpyrazolo[1,5-a]pyrimidine-3-carboxamide] gave an IC50 of more than 50 µM.

Regarding `O=C(OC1CCCCC1)c1ccc2c(c1)C1C=CCC1C(C(=O)O)N2` (stereo unspecified) [SMR000019385], the IC50 was more than 50 µM.

`O=C1C(=C2C(=O)c3ccccc3C2=O)Nc2ccccc21` [MLS000071738] displayed an IC50 of more than 50 µM.

`CC(C)Sc1nc2sc3c(c2c2nnc(SCC(=O)NCc4ccco4)n12)CCCC3` [MLS000082957] showed an IC50 of more than 50 µM.

Take `O=C(NC1(O)C(=O)c2ccccc2C1=O)c1ccccc1` [N-(2-hydroxy-1,3-dioxo-2-indenyl)benzamide]: the IC50 turned out to be 19.9 µM.

As for `O=C(Nc1ccc2nc(-c3ccco3)c(-c3ccco3)nc2c1)N1CCCCCC1`, the concentration for half-maximal inhibition (IC50) was more than 50 µM.

Compound `COc1ccc(Br)cc1C=c1sc2nc(-c3ccco3)nn2c1=O` [5-[(5-bromanyl-2-methoxy-phenyl)methylidene]-2-(furan-2-yl)-[1,3]thiazolo[3,2-b][1,2,4]triazol-6-one] registered an IC50 of more than 50 µM.

The compound `O=C(Nc1ccccc1)c1ccc2nc(-c3ccco3)c(-c3ccco3)nc2c1` [2,3-di-2-furyl-N-phenyl-6-quinoxalinecarboxamide] returned an IC50 of more than 50 µM.

Consider `COc1cc(/C=C(/C#N)c2ccc(F)cc2)ccc1OCc1ccc(C(=O)O)o1` [5-({4-[2-cyano-2-(4-fluorophenyl)vinyl]-2-methoxyphenoxy}methyl)-2-furoic acid], for which the half-inhibitory concentration (IC50) was more than 50 µM.

In the case of `FC(F)(F)c1ccc(N2CCOCC2)c(Nc2nc3ccccc3n3cnnc23)c1` [MLS000093276], the half-maximal inhibitory concentration (IC50) was more than 50 µM.

Consider `O=C1C=C(NCc2ccc(Cl)c(Cl)c2)CC1` [3-[(3,4-dichlorobenzyl)amino]cyclopent-2-en-1-one], for which the IC50 is more than 50 µM.

`CCOC(=O)c1ccc2c(c1)C1C=CCC1C(C(=O)O)N2` (stereo unspecified) [MLS-0025126.0001] registered a half-maximal inhibitory concentration (IC50) of more than 50 µM.

For `Cc1ccc(-c2csc(NC(=O)c3ccno3)n2)cc1` [MLS000081820], the half-inhibitory concentration (IC50) is more than 50 µM.

`O=C1c2ccccc2-c2onc3ccc(NCCCn4ccnc4)c1c23` [SMR000044769] displayed a concentration for half-maximal inhibition (IC50) of more than 50 µM.

In turn, `Cc1ccc(/C=C/C2=Cc3c(sc(NC(=O)CSc4nnc(N)[nH]4)c3C#N)C(C)(C)C2)o1` [2-[(5-azanyl-1H-1,2,4-triazol-3-yl)sulfanyl]-N-[3-cyano-7,7-dimethyl-5-[(E)-2-(5-methylfuran-2-yl)ethenyl]-6H-1-benzothiophen-2-yl]ethanamide] showed an IC50 of more than 50 µM.

`Cc1cccc(N2CCN(C(=O)Cc3c(C(=O)O)[nH]c4ccc(Cl)cc34)CC2)c1C` [5-chloranyl-3-[2-[4-(2,3-dimethylphenyl)piperazin-1-yl]-2-oxidanylidene-ethyl]-1H-indole-2-carboxylic acid]: the IC50 is more than 50 µM.

`CC(=O)[C@@H]1[C@@H]2C(=O)N(c3ccc(F)c(Cl)c3)C(=O)[C@@H]2C2c3ccccc3C=CN21` (stereo partly specified) [MLS000040594]: half-maximal inhibition (IC50) was put at 47.1 µM.

The compound `CCc1ccc(NC(=O)CSc2nc3ccccc3c(=O)n2CCN2CCOCC2)cc1` [MLS000095236] had a half-maximal inhibitory concentration (IC50) of more than 50 µM.

`CCn1nc(-c2ccccc2)nc2c(=O)n(C)c(=O)nc1-2` [1-Ethyl-6-methyl-3-phenyl-1H-pyrimido[5,4-e][1,2,4]triazine-5,7-dione] came in with a 50% inhibitory concentration (IC50) of 0.568 µM.

In turn, `CC(C)Cn1c(N)c(C(=O)COC(=O)c2cc(-c3ccco3)nc3ccccc23)c(=O)n(C)c1=O` [2-(2-furanyl)-4-quinolinecarboxylic acid [2-[4-amino-1-methyl-3-(2-methylpropyl)-2,6-dioxo-5-pyrimidinyl]-2-oxoethyl] ester] yielded a half-maximal inhibitory concentration (IC50) of more than 50 µM.

`COc1ccc(-c2cc3nc(C4CCN(C(=O)OC(C)(C)C)CC4)c(C(=O)O)cn3n2)cc1` [2-(4-methoxyphenyl)-5-[1-[(2-methylpropan-2-yl)oxy-oxomethyl]-4-piperidinyl]-6-pyrazolo[1,5-a]pyrimidinecarboxylic acid] came in with a concentration for half-maximal inhibition (IC50) of more than 50 µM.

The compound `COc1ccc(Cn2c(C)nc3c(c2=O)c2nc4ccccc4nc2n3Cc2ccco2)cc1` [MLS000079944] had an IC50 of more than 50 µM.

`CCn1c(SCC(=O)Nc2ccc3c(c2)c2ccccc2n3CC)nnc1-c1ccco1` [MLS000050867] had a 50% inhibitory concentration (IC50) of more than 50 µM.

In turn, `[O-]/[N+](=C\c1ccncc1)c1ccccc1` returned a half-maximal inhibitory concentration (IC50) of more than 50 µM.

In turn, `N#Cc1c(N2CCCC2)nc(N)c2c(N)nc(N3CCCC3)cc12` [SMR000061605] came in with an IC50 of 3.43 µM.
